Assay results reported in patent US9611256B2, “Alkyne-, azide- and triazole-containing flavonoids as modulators for multidrug resistance in cancers” (The Hong Kong Polytechnic University, priority 2012, dated 2017).
“And” between values parts separate entries of the source, which are not always exact repeats. Equal entries are not always repeated. Where two headings read alike, the source gives them in different places. Values belong to the compound of their own block, whether it stands above or below them.

How the values were obtained:
[1] = system: L929 cells; assay: Cytotoxicity assay (MTS) towards L929 normal fibroblasts; settings: read-out: Cytotoxicity (IC50, μM) L929; L929 mouse fibroblasts
[2] = system: HEK293/pcDNA3.1 cell line; assay: Cell proliferation assay without modulator, HEK293/pcDNA3.1; type: cell-based; settings: Homo sapiens, read-out: IC50 of anticancer drug, wild type HEK293/pcDNA3.1
[3] = system: MCF7; assay: Cell proliferation assay without modulator, MCF7; type: cell-based; settings: Homo sapiens, read-out: IC50 of anticancer drug, wild type MCF7
[4] = system: HEK293/R2; assay: Cell proliferation assay without modulator, HEK293/R2; type: cell-based; settings: Homo sapiens, read-out: IC50 of anticancer drug, HEK293/R2
[5] = system: MCF7-MX100; assay: Cell proliferation assay without modulator, MCF7-MX100; type: cell-based, human
[6] = system: 2008/MRP1; assay: Cell proliferation assay, 2008/MRP1
[7] = system: 2008/P cells; assay: Cell proliferation assay, 2008/P; type: cell-based; settings: Homo sapiens; without modulator; read-out: IC50 of anticancer drug, parental 2008/P cells
[8] = system: LCC6 cells; assay: Cell proliferation assay without modulator, LCC6; type: cell-based; settings: Homo sapiens, LCC-6, read-out: IC50 of anticancer drug, parental LCC6 cells
[9] = system: LCC6MDR; assay: Cell proliferation assay without modulator, LCC6MDR; type: cell-based, human
[10] = Cytotoxicity assay (MTS) towards L929 normal fibroblasts; settings: mouse, L929 fibroblasts

Compound: COc1ccc2c3c([nH]c2c1)[C@H](CC(C)C)N1C(=O)[C@H](CCC(=O)OC(C)(C)C)NC(=O)[C@@H]1C3 [Ko143]
IC50 [1]: 29 µM and 29.2 µM

IC50 [3]: 320 ± 70 nM
IC50 ([5]; Homo sapiens, MCF7/MX100, read-out: IC50 of anticancer drug, MCF7-MX100): 33400 ± 2100 nM
Compound: CC[C@@]1(O)C(=O)OCc2c1cc1n(c2=O)Cc2cc3c(CN(C)C)c(O)ccc3nc2-1 [topotecan]
IC50 [2]: 15.8 ± 1.5 nM
IC50 [4]: 508 ± 31.1 nM
fold more resistance of MCF7-MX100 than wild type MCF7 [5]: about 104.4 fold

Compound: COc1cccc2c1C(=O)c1c(O)c3c(c(O)c1C2=O)C[C@@](O)(C(=O)CO)C[C@@H]3O[C@H]1C[C@H](N)[C@H](O)[C@H](C)O1 [DOX]
IC50 ([6]; Homo sapiens, 2008/MRP1, read-out: IC50 of anticancer drug, 2008/MRP1, without modulator): 420 ± 17.4 nM
IC50 ([6]; read-out: IC50 of anticancer drug, 2008/MRP1, without modulator): 413 nM
fold more resistance of 2008/MRP1 than parental 2008/P ([6]; without modulator): about 8.4 fold
IC50 [7]: 50.1 ± 3.9 nM

Compound: CC(=O)O[C@H]1C(=O)[C@@]2(C)[C@H]([C@H](OC(=O)c3ccccc3)[C@]3(O)C[C@H](OC(=O)[C@H](O)[C@@H](NC(=O)c4ccccc4)c4ccccc4)C(C)=C1C3(C)C)[C@]1(OC(C)=O)CO[C@@H]1C[C@@H]2O [paclitaxel]
IC50 [8]: 1.6 ± 0.3 nM
fold greater resistance of LCC6MDR than parental LCC6 cells [9]: about 99.2 fold
IC50 ([9]; Homo sapiens, LCC6MDR, read-out: IC50 of anticancer drug, LCC6MDR): 159 ± 6.1 nM

Compound: C/C=C/C[C@@H](C)C(=O)[C@H]1C(=O)N[C@@H](C(C)C)C(=O)N(C)CC(=O)N(C)[C@@H](CC(C)C)C(=O)N[C@@H](C(C)C)C(=O)N(C)[C@@H](CC(C)C)C(=O)N[C@@H](C)C(=O)N[C@H](C)C(=O)N(C)[C@@H](CC(C)C)C(=O)N(C)[C@@H](CC(C)C)C(=O)N(C)[C@@H](C(C)C)C(=O)N1C [PSC833]
IC50 at 5 days [10]: > 100000 nM
